# Source: patent US20240382403A1, “COSMETIC, DERMATOLOGICAL OR COSMECEUTICAL TREATMENT, IN PARTICULAR PROPIGMENTING” (Sederma, priority 2021, published 2024)
# Experiments:
# NHM [1] = assay: Pigmentation of NHM, microscopic observation by expert; type: cell-based, human; details: 10 days
# Experimental: NHM are cultivated and placed in contact with the product according to the invention for 10 days. At the end of this contact period, cells are observed with a microscope and variation of pigmentation of cells versus control is evaluated by an expert.
# [2] = test system: normal human melanocytes (NHM); assay: Melanin production by NHM without UV induction (spectrophotometry); type: cell-based; details: for melanin production by NHM, Variation (%) vs control / Melanin: n = 4; for increase in pigmentation of NHM vs. control: 16 ppm; for Melanin Variation (%) vs control / Melanin: 10 days contact; for Melanin: without UV induction
# Experimental: (§1) NHM are cultivated and placed in contact with the product according to the invention for 10 days. At the end of this contact period, the mats are ground and the melanin is extracted from the cells. The quantity of melanin is assessed by spectrophotometry, using a standard range established previously from a melanin solution and compared to the control. A protein assay using the bicinchoninic acid (BCA) method is performed to estimate the quantity of cells and to standardise the obtained data.
# The tests were carried out on NHM, the protocol being the same to the one above of point a)
# The protocol is the same as that of point a) above.
# B16 mouse pigment cells [3] = assay: Number of cells in the B16 melanin test; type: cell-based; details: tested concentrations 5.5 and 11 ppm
# Experimental: as §1
# (§2) B16 mouse pigment cells are cultivated and placed in contact with the product according to the invention for 2 days. For this type of cells, tyrosinase is also assayed. Tyrosinase is the first enzyme in the chain of melanogenesis, changing tyrosine to DOPA-quinone.
# keratinocytes [4] = assay: PGE2 in keratinocytes with or without UVB (ELISA); type: cell-based; details: for PGE2 with UVB irradiation / PGE2 without irradiation: n = 3
# Experimental: (§3) Keratinocytes are seeded and cultured and, once at sub-confluence, receive the tyrosine derivative according to the invention, or its solvent, at different concentrations. After 24 hours, the cells are rinsed and then exposed to UVB, and the cells are then re-treated with the media containing the tyrosine derivative according to the invention at different concentrations for 24 hours. Other cases are not exposed. The culture media are assayed for PGE2, IL6 and IL8 using ELISA methods. The number of cells was estimated using the Hoescht method.
# keratinocytes [5] = assay: IL6 in keratinocytes with UVB (ELISA); type: cell-based; details: for IL6 with UVB irradiation: n = 2
# Experimental: as §3
# fibroblasts = assay: PGE2 in fibroblasts with or without UVB (ELISA); type: cell-based; details: for PGE2 with UVB irradiation / PGE2 without irradiation: n = 3
# Experimental: as §3
# The same protocol is applied in parallel to Fibroblasts.
# [6] = test system: Normal human keratinocytes (NHK); assay: NHK phagocytosis of fluorescent microbeads mimicking melanosomes; type: cell-based; details: for Phagocytosis (μbeas: (Total Area/1000)): 24 h treatment then beads 3 h, n = 4
# Experimental: Normal human keratinocytes (NHK) are seeded and cultured and, once at 50% sub-confluence, receive the tyrosine derivative according to the invention, or its solvent, at different concentrations for 24 h. At the end of this period, the cells receive the fluorescent microbeads mimicking melanosomes for 3 h. Then, the cells are rinsed to remove excess beads, and the mats are visualized under a fluorescence microscope to quantify phagocytosis. The cell concentration is estimated using the Hoescht method.
# HaCaT keratinoctes [7] = assay: Hyaluronic acid production by keratinocytes (ELISA); type: cell-based; details: 3 days; for Hyaluronic acid: n = 4
# Experimental: (§4) HaCaT keratinoctes are seeded and cultured and, once at sub-confluence, receive the tyrosine derivative according to the invention, or its solvent, at different concentrations for 3 days. At the end of this period, the media are collected for hyaluronic acid and laminin assays using ELISA methods. The cell concentration is estimated using the Hoescht method.
# Tyrosinase = Tyrosinase activity by B16 mouse pigment cells; type: cell-based; details: 2 days contact; for Tyrosinase: n = 4
# Experimental: as §2
# HaCaT keratinoctes [8] = assay: Laminin production by keratinocytes (ELISA); type: cell-based; details: 3 days; for Laminin: n = 4
# Experimental: as §4
# B16 mouse pigment cells [9] = assay: Melanin production by B16 mouse pigment cells; type: cell-based; details: 2 days contact; for Melanin: n = 4
# Experimental: as §1, §2
# keratinocytes [10] = assay: IL8 in keratinocytes with UVB (ELISA); type: cell-based; details: for IL8 with UVB irradiation: n = 2
# Experimental: as §3
# NHM [11] = assay: Number of cells (BCA protein assay) in the NHM melanin test; type: cell-based, human; details: tested concentrations 5.5 and 11 ppm
# Experimental: as §1
# [12] = 12.5 μM (5.5 ppm of N-Palmitoyl-O-methyl-L-Tyrosine, 5.25 ppm of N-Palmitoyl-L-Tyrosine)
# [13] = 25 μM (11 ppm of N-Palmitoyl-O-methyl-L-Tyrosine, 10.5 ppm of N-Palmitoyl-L-Tyrosine)
smiles,measurement,setting,value
"CCCCCCCCCCCCCCCC(=O)N[C@@H](Cc1ccc(O)cc1)C(=O)O [N-Palmitoyl-L-Tyrosine, reference compound]",Variation of pigmentation of cells versus control (expert grade),NHM [1]; 12.5 μM,0
same,Variation of pigmentation of cells versus control (expert grade),NHM [1]; 25 μM,0
same,"melanin production by NHM, Variation (%) vs control",[2]; [12],+7%; dns
same,"melanin production by NHM, Variation (%) vs control",[2]; [13],+10%; dns
CCCCCCCCCCCCCCCC(=O)N[C@@H](Cc1ccc(OC)cc1)C(=O)O [N-Palmitoyl-O-methyl-L-Tyrosine],number of cells / toxicity,B16 mouse pigment cells [3],neither toxic nor multiplication activator
same,PGE2 with UVB irradiation Variation (%) vs control,keratinocytes [4]; 5.5 ppm,−62%; p < 0.01
same,PGE2 without irradiation Variation (%) vs control,keratinocytes [4]; 5.5 ppm,−60%; p < 0.01
same,PGE2 with UVB irradiation,keratinocytes [4]; 5.5 ppm,101 +/− 7 ng/10^6 cell.
same,PGE2 without irradiation,keratinocytes [4]; 5.5 ppm,51 +/− 5 ng/10^6 cell.
same,PGE2 with UVB irradiation Variation (%) vs control,keratinocytes [4]; 11 ppm,−73%; p < 0.01
same,PGE2 without irradiation Variation (%) vs control,keratinocytes [4]; 11 ppm,−58%; p < 0.01
same,PGE2 with UVB irradiation,keratinocytes [4]; 11 ppm,72 +/− 3 ng/10^6 cell.
same,PGE2 without irradiation,keratinocytes [4]; 11 ppm,54 +/− 5 ng/10^6 cell.
same,IL6 with UVB irradiation Variation (%) vs control,keratinocytes [5]; 5.5 ppm,−43%; p < 0.01
same,IL6 with UVB irradiation,keratinocytes [5]; 5.5 ppm,880 +/− 142 ng/10^6 cell.
same,IL6 with UVB irradiation Variation (%) vs control,keratinocytes [5]; 11 ppm,−45%; p < 0.01
same,IL6 with UVB irradiation,keratinocytes [5]; 11 ppm,853 +/− 115 ng/10^6 cell.
same,PGE2 without irradiation Variation (%) vs control,fibroblasts; 5.5 ppm,−32%; p < 0.01
same,PGE2 with UVB irradiation,fibroblasts; 5.5 ppm,7332 +/− 478 ng/10^6 cell.
same,PGE2 without irradiation,fibroblasts; 5.5 ppm,7420 +/− 422 ng/10^6 cell.
same,PGE2 with UVB irradiation Variation (%) vs control,"fibroblasts; 5.5 ppm, non significant data",−19%; nsd*
same,PGE2 with UVB irradiation Variation (%) vs control,fibroblasts; 11 ppm,−33%; p < 0.01
same,PGE2 without irradiation Variation (%) vs control,fibroblasts; 11 ppm,−41%; p < 0.01
same,PGE2 with UVB irradiation,fibroblasts; 11 ppm,6117 +/− 735 ng/10^6 cell.
same,PGE2 without irradiation,fibroblasts; 11 ppm,6470 +/− 311 ng/10^6 cell.
same,Phagocytosis Variation (%) vs control,[6]; 5.5 ppm,+71%; p < 0.01
same,Phagocytosis Variation (%) vs control,[6]; 11 ppm,+129%; p < 0.01
same,Phagocytosis (μbeas: (Total Area/1000)),[6]; 5.5 ppm,6599 +/− 1115 Total Area/1000
same,Phagocytosis (μbeas: (Total Area/1000)),[6]; 11 ppm,9910 +/− 1161 Total Area/1000
same,Hyaluronic acid Variation (%) vs control,HaCaT keratinoctes [7]; 1.375 ppm,+35%; p < 0.01
same,Hyaluronic acid,HaCaT keratinoctes [7]; 1.375 ppm,402 +/− 35 ng/10^6 cell.
same,Hyaluronic acid Variation (%) vs control,HaCaT keratinoctes [7]; 2.75 ppm,+31%; p < 0.01
same,Hyaluronic acid,HaCaT keratinoctes [7]; 2.75 ppm,391 +/− 25 ng/10^6 cell.
same,Tyrosinase Variation (%) vs control,Tyrosinase; 5.5 ppm,+9.7%; p < 0.01
same,Tyrosinase,Tyrosinase; 5.5 ppm,2.8 +/− 0 U/1000 μg protein
same,Tyrosinase Variation (%) vs control,Tyrosinase; 11 ppm,+20.5%; p < 0.01
same,Tyrosinase,Tyrosinase; 11 ppm,3.1 +/− 0 U/1000 μg protein
same,Laminin Variation (%) vs control,HaCaT keratinoctes [8]; 2.75 ppm,+33%; p < 0.01
same,Laminin,HaCaT keratinoctes [8]; 2.75 ppm,88 +/− 3 ng/10^6 cell.
same,Laminin Variation (%) vs control,HaCaT keratinoctes [8]; 5.5 ppm,+69%; p < 0.01
same,Laminin,HaCaT keratinoctes [8]; 5.5 ppm,111 +/− 9 ng/10^6 cell.
same,Melanin Variation (%) vs control,B16 mouse pigment cells [9]; 5.5 ppm,+26%; p < 0.01
same,Melanin,B16 mouse pigment cells [9]; 5.5 ppm,171.1 +/− 2.3 μg/mL/10^6 cell.
same,Melanin Variation (%) vs control,B16 mouse pigment cells [9]; 11 ppm,+62%; p < 0.01
same,Melanin,B16 mouse pigment cells [9]; 11 ppm,220.7 +/− 8.7 μg/mL/10^6 cell.
same,IL8 with UVB irradiation Variation (%) vs control,keratinocytes [10]; 5.5 ppm,−42%; p < 0.01
same,IL8 with UVB irradiation,keratinocytes [10]; 5.5 ppm,4.3 +/− 0.7 ng/10^6 cell.
same,IL8 with UVB irradiation Variation (%) vs control,keratinocytes [10]; 11 ppm,−90%; p < 0.01
same,IL8 with UVB irradiation,keratinocytes [10]; 11 ppm,0.7 +/− 0 ng/10^6 cell.
same,"melanin production by NHM, Variation (%) vs control",[2]; [12],+50%; p < 0.01
same,"melanin production by NHM, Variation (%) vs control",[2]; [13],+86%; p < 0.01
same,increase in pigmentation of NHM vs. control,[2]; NHM,52%
same,Melanin Variation (%) vs control,"[2]; NHM, 5.5 ppm",+50%; p < 0.01
same,Melanin,"[2]; NHM, 5.5 ppm",404 +/− 42 μg/mL/10^6 cell.
same,Melanin Variation (%) vs control,"[2]; NHM, 11 ppm",+86%; p < 0.01
same,Melanin,"[2]; NHM, 11 ppm",501 +/− 41 μg/mL/10^6 cell.
same,number of cells / toxicity,NHM [11],neither toxic nor multiplication activator
"CCCCCCCC/C=C\CCCCCCCCN[C@@H](Cc1ccc(O)cc1)C(=O)O [oleyl tyrosine, reference compound]",increase in pigmentation of NHM vs. control,[2]; NHM,9%
same,increase in NHM pigmentation vs. control,"[2]; NHM, approximately 3 times more oleyl tyrosine applied than 16 ppm",+35%
